24 compounds from patent publication US20110098288A1, “SULFONAMIDES AS ZAP-70 INHIBITORS” (priority 2008, published 2011) can be followed below.

Counter-ions that a name gives are not always drawn.

In general, IC50 refers to the concentration at which inhibition is half-maximal.

The subject of experiment [1] is Jurkat cells. Briefly: Calcium release assay (Fluo-4 flow cytometry after anti-CD3 stimulation). The format is cell-based. Conditions: Homo sapiens, Jurkat cell line J77, anti-CD3 activation, read-out: IC50 (Calcium ion release in cells). Put shortly:
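Jurkat J77 cells loaded with Fluo-4/Pluronic F-127 for 30 min at 37 °C, then incubated with compound at room temperature in the dark in PBS–CaCl2 with 10% FCS. Stimulation with anti-CD3 (0.2 μg/ml final) plus GAM (0.75 μg/ml final) at 37 °C, then flow-cytometric Ca2+ fluorescence acquired for 200 s.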

Experiment [2] concerns the target T1, ZAP-70 (Homo sapiens, UniProt P43403).
T1 construct: endogenous in cells; host or cells: cell lysate
T1 sequence (P43403 1-619): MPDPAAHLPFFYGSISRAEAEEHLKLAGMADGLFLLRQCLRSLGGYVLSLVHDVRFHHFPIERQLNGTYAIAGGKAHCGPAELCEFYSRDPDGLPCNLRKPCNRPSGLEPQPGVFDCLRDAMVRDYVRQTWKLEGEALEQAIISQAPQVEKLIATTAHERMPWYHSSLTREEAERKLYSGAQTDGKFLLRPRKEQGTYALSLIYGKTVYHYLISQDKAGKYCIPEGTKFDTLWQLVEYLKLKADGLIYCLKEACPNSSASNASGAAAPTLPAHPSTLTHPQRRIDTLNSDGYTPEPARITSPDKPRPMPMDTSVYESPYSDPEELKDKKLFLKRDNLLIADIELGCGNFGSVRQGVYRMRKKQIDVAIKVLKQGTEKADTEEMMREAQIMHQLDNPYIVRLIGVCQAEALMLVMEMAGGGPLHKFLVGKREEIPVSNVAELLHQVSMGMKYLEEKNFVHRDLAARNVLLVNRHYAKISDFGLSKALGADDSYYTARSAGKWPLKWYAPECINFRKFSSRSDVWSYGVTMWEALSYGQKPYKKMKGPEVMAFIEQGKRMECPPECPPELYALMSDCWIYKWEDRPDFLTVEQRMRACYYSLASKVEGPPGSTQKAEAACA
The experiment in a line: ZAP-70 kinobeads assay. Conditions: competition with immobilized aminopyrido-pyrimidine ligand 24 in cell lysate; ZAP-70 detected by dot blot. The format is binding. Put shortly: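 Cell lysate aliquots incubated with test compounds at various concentrations plus affinity beads carrying immobilized aminopyrido-pyrimidine ligand 24. Bead-captured proteins eluted; ZAP-70 quantified by specific antibody dot blot with infrared detection.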

As to `COc1ccc(Nc2nc(Nc3cc(OC)c(OC)c(OC)c3)ncc2Cl)c(NS(C)(=O)=O)c1` [Example 152, N-(2-(5-chloro-2-(3,4,5-trimethoxyphenylamino)pyrimidin-4-ylamino)-5-methoxyphenyl)methanesulfonamide], the IC50 in experiment [1] and in experiment [2] was under 100 nM in each case.

With `CCN(c1ccccc1Nc1nc(Nc2cc(OC)c(OC)c(OC)c2)ncc1F)S(C)(=O)=O` [Example 154, N-ethyl-N-(2-(5-fluoro-2-(3,4,5-trimethoxyphenylamino)pyrimidin-4-ylamino)phenyl)methanesulfonamide], the IC50 was under 100 nM in experiment [1] and 100 to 1000 nM in experiment [2].

For the compound `CCN(c1ccccc1Nc1nc(Nc2ccc(OCCN3CCCCC3)cc2)ncc1F)S(C)(=O)=O` [Example 158, N-ethyl-N-(2-(5-fluoro-2-(4-(2-(piperidin-1-yl)ethoxy)phenylamino)pyrimidin-4-ylamino)phenyl)methanesulfonamide], the IC50 in experiment [1] is under 100 nM; in experiment [2] it was 100 to 1000 nM.

For `COc1cc(Nc2ncc(Cl)c(Nc3cccc(C)c3NS(C)(=O)=O)n2)cc(OC)c1OC` [Example 160, N-(2-(5-chloro-2-(3,4,5-trimethoxyphenylamino)pyrimidin-4-ylamino)-6-methylphenyl)methanesulfonamide], the IC50 in experiment [1] and in experiment [2] was under 100 nM each time.

Consider `COc1cc(Nc2ncc(F)c(Nc3cccc(C(C)C)c3NS(C)(=O)=O)n2)cc(OC)c1OC` [Example 161, N-(2-(5-fluoro-2-(3,4,5-trimethoxyphenylamino)pyrimidin-4-ylamino)-6-isopropylphenyl)methanesulfonamide], for which the IC50 in experiment [1] and in experiment [2] was 100 to 1000 nM throughout.

As for `COc1cc(Nc2ncc(F)c(Nc3ccc(F)c(C)c3NS(C)(=O)=O)n2)cc(OC)c1OC` [Example 162, N-(3-fluoro-6-(5-fluoro-2-(3,4,5-trimethoxyphenylamino)pyrimidin-4-ylamino)-2-methylphenyl)methanesulfonamide], the IC50 in experiment [1] and in experiment [2] was 100 to 1000 nM in each case.

Take `COc1cc(Nc2ncc(Cl)c(Nc3ccc4c(c3NS(C)(=O)=O)OCCO4)n2)cc(OC)c1OC` [Example 164, N-(6-(5-chloro-2-(3,4,5-trimethoxyphenylamino)pyrimidin-4-ylamino)-2,3-dihydrobenzo[b][1,4]dioxin-5-yl)methanesulfonamide]: the IC50 in experiment [1] and in experiment [2] was under 100 nM in each case.

As to `COc1cc(Nc2ncc(F)c(Nc3ccc(C)c(C)c3NS(C)(=O)=O)n2)cc(OC)c1OC` [Example 165, N-(6-(5-fluoro-2-(3,4,5-trimethoxyphenylamino)pyrimidin-4-ylamino)-2,3-dimethylphenyl)methanesulfonamide], the IC50 in experiment [1] and in experiment [2] was 100 to 1000 nM throughout.

Take `CCOc1cccc(Nc2nc(Nc3cc(OC)c(OC)c(OC)c3)ncc2F)c1NS(C)(=O)=O` [Example 166, N-(2-ethoxy-6-(5-fluoro-2-(3,4,5-trimethoxyphenylamino)pyrimidin-4-ylamino)phenyl)methanesulfonamide]: the IC50 in experiment [1] is 100 to 1000 nM; in experiment [2], under 100 nM.

Regarding `COc1cc(Nc2ncc(F)c(Nc3ccc4c(c3NS(C)(=O)=O)OCCO4)n2)cc(OC)c1OC` [Example 167, N-(6-(5-fluoro-2-(3,4,5-trimethoxyphenylamino)pyrimidin-4-ylamino)-2,3-dihydrobenzo[b][1,4]dioxin-5-yl)methanesulfonamide], the IC50 in experiment [1] and in experiment [2] was under 100 nM each time.

Regarding `CCOc1ccc(Nc2nc(Nc3cc(OC)c(OC)c(OC)c3)ncc2F)c(NS(C)(=O)=O)c1C` [Example 168, N-(3-ethoxy-6-(5-fluoro-2-(3,4,5-trimethoxyphenylamino)pyrimidin-4-ylamino)-2-methylphenyl)methanesulfonamide], the IC50 in experiment [1] and in experiment [2] was 100 to 1000 nM throughout.

Consider `CCc1cccc(Nc2nc(Nc3cc(OC)c(OC)c(OC)c3)ncc2F)c1NS(C)(=O)=O` [Example 169, N-(2-ethyl-6-(5-fluoro-2-(3,4,5-trimethoxyphenylamino)pyrimidin-4-ylamino)phenyl)methanesulfonamide], for which the values for the IC50 in experiment [1] and in experiment [2] were 100 to 1000 nM and under 100 nM, respectively.

`COc1cc(Nc2ncc(F)c(Nc3ccc(C)cc3NS(C)(=O)=O)n2)cc(OC)c1OC` [Example 170, N-(2-(5-Fluoro-2-(3,4,5-trimethoxyphenylamino)pyrimidin-4-ylamino)-5-methylphenyl)methanesulfonamide]: the IC50 in experiment [1] and in experiment [2] was 100 to 1000 nM in each case.

As to `COc1cc(Nc2ncc(F)c(Nc3ccc(N4CCOCC4)cc3NS(C)(=O)=O)n2)cc(OC)c1OC` [Example 171, N-(2-(5-fluoro-2-(3,4,5-trimethoxyphenylamino)pyrimidin-4-ylamino)-5-morpholinophenyl)methanesulfonamide], the IC50 in experiment [1] and in experiment [2] was 100 to 1000 nM in each case.

`COc1cccc(Nc2nc(Nc3cc(OC)c(OC)c(OC)c3)ncc2F)c1NS(C)(=O)=O` [Example 172, N-(2-(5-fluoro-2-(3,4,5-trimethoxyphenylamino)pyrimidin-4-ylamino)-6-methoxyphenyl)methanesulfonamide]: the IC50 in experiment [1] and in experiment [2] was 100 to 1000 nM throughout.

Take `COc1ccc(Nc2nc(Nc3cc(OC)c(OC)c(OC)c3)ncc2F)c(NS(C)(=O)=O)c1` [Example 173, N-(2-(5-fluoro-2-(3,4,5-trimethoxyphenylamino)pyrimidin-4-ylamino)-5-methoxyphenyl)methanesulfonamide]: the IC50 in experiment [1] and in experiment [2] was under 100 nM throughout.

With `CCOc1ccc(Nc2nc(Nc3cc(OC)c(OC)c(OC)c3)ncc2F)c(NS(C)(=O)=O)c1` [Example 175, N-(5-ethoxy-2-(5-fluoro-2-(3,4,5-trimethoxyphenylamino)pyrimidin-4-ylamino)phenyl)methanesulfonamide], the IC50 in experiment [1] and in experiment [2] was under 100 nM throughout.

On to `COc1cc(Nc2nccc(Nc3cccc(C)c3NS(C)(=O)=O)n2)cc(OC)c1OC` [Example 176, N-(2-methyl-6-(2-(3,4,5-trimethoxyphenylamino)pyrimidin-4-ylamino)phenyl)methanesulfonamide], for which the IC50 in experiment [1] is under 100 nM; in experiment [2], 100 to 1000 nM.

As for `COc1cc(Nc2nccc(Nc3cccc(C)c3NS(C)(=O)=O)n2)cc(OCCN2CCCCC2)c1` [Example 177, N-(2-(2-(3-methoxy-5-(2-(piperidin-1-yl)ethoxy)phenylamino)pyrimidin-4-ylamino)-6-methylphenyl)methanesulfonamide formate salt], the IC50 in experiment [1] and in experiment [2] was 100 to 1000 nM each time.

Take `COc1ccc(Nc2nc(Nc3cc(OC)c(OC)c(OC)c3)ncc2Br)c(NS(C)(=O)=O)c1` [Example 178, N-(2-(5-bromo-2-(3,4,5-trimethoxyphenylamino)pyrimidin-4-ylamino)-5-methoxyphenyl)methanesulfonamide]: the IC50 in experiment [1] was 100 to 1000 nM; in experiment [2], under 100 nM.

For `COc1cc(Nc2ncc(F)c(Nc3ccc(OC(C)C)cc3NS(C)(=O)=O)n2)cc(OC)c1OC` [Example 182, N-(2-(5-fluoro-2-(3,4,5-trimethoxyphenylamino)pyrimidin-4-ylamino)-5-isopropoxyphenyl)methanesulfonamide], the concentration for half-maximal inhibition (IC50) in experiment [1] and in experiment [2] was under 100 nM each time.

Consider `COc1cc(Nc2ncc(F)c(Nc3cccc(F)c3NS(C)(=O)=O)n2)cc(OC)c1OC` [Example 183, N-(2-fluoro-6-(5-fluoro-2-(3,4,5-trimethoxyphenylamino)pyrimidin-4-ylamino)phenyl)methanesulfonamide], for which the IC50 in experiment [1] and in experiment [2] was 100 to 1000 nM each time.

For `COc1cc(Nc2ncc(F)c(Nc3cccc(Cl)c3NS(C)(=O)=O)n2)cc(OC)c1OC` [Example 184, N-(2-chloro-6-(5-fluoro-2-(3,4,5-trimethoxyphenylamino)pyrimidin-4-ylamino)phenyl)methanesulfonamide], the IC50 in experiment [1] and in experiment [2] was 100 to 1000 nM in each case.

`CS(=O)(=O)Nc1ccccc1Nc1nc(Nc2ccc(N3CCCCC3)cc2)ncc1Br` [Example 215, N-(2-(5-bromo-2-(4-(piperidin-1-yl)phenylamino)pyrimidin-4-ylamino)phenyl)methanesulfonamide]: the IC50 in experiment [1] and in experiment [2] was 100 to 1000 nM throughout.
